Paper PMC12220852, “An adamantane‐based ligand as a novel chemical tool for thermosensory TRPM8 channel therapeutic modulation” (The Febs Journal, 2025)
Entries after “also recorded” stand apart in the source; their conditions may differ.

Experiments:
[1] = tested on: oxaliplatin‐induced peripheral cold allodynia in mice; experiment: Acetone drop test in oxaliplatin-induced cold allodynia; format: in vivo, mouse; details: 30 and 90 min after administration, oxaliplatin-treated mice
Protocol: Given the inhibitory activity of compound 23 and the antinociceptive effects of TRPM8 antagonists described in models of oxaliplatin (OXP)‐induced neuropathy, we conducted a behavioral experiment in mice to assess the antinociceptive effects of compound 23 after repeated oxaliplatin administration. Oxaliplatin was intraperitoneally (i.p.) administered every other day for 5 days at 6 mg·kg^−1, reaching a total accumulative dose of 18 mg·kg^−1. […]
(§1) The systemic effect of compound 23 was assessed after intraperitoneal administration at 5 mg·kg^−1, dissolved in a solution of 2% Cremophor and 5% DMSO in saline, with a volume of 10 mL·kg^−1. […] Nociceptive sensitivity was evaluated for 30‐ and 90‐min postinjection using the acetone drop test (7 days after the first oxaliplatin dose) and the dry ice test (9 days after the last oxaliplatin dose).
The local effect of compound 23 or its vehicle was assessed 11 days after beginning the oxaliplatin treatment through subcutaneous intraplantar injection of 1 μg compound 23 or vehicle (2% Cremophor and 5% DMSO in saline) in the ventral side of the right hind paw, administered in a volume of 10 μL [66]. […] Nociceptive sensitivity was evaluated 30 and 90 min after the intraplantar injection with the acetone test. […]

[2] = tested on: oxaliplatin‐induced peripheral cold allodynia in mice; experiment: Dry ice test in oxaliplatin-induced cold allodynia; format: in vivo, mouse; details: 5 mg·kg^−1 i.p., 30 and 90 min after administration, vs vehicle, oxaliplatin-treated mice
Protocol: Given the inhibitory activity of compound 23 and the antinociceptive effects of TRPM8 antagonists described in models of oxaliplatin (OXP)‐induced neuropathy, we conducted a behavioral experiment in mice to assess the antinociceptive effects of compound 23 after repeated oxaliplatin administration. Oxaliplatin was intraperitoneally (i.p.) administered every other day for 5 days at 6 mg·kg^−1, reaching a total accumulative dose of 18 mg·kg^−1. […] The OXP‐induced sensitization to cold stimuli was also evident with the dry ice test, as evidenced by the significant reduction in the latency to cold stimulation through the application of a dry ice pellet against the paw on a glass surface (Fig. 8B, P < 0.05 Before OXP vs. After OXP). […]
as §1
The dry ice test was conducted as previously described with some modifications. […] To determine the threshold value for each mouse, the latency to paw withdrawal was recorded for each hindpaw and subsequently averaged. […]

Compound: O=C(COC(=O)c1ccccc1-c1ccccc1)NC12CC3CC(CC(C3)C1)C2 [Compound 23, 2‐((3S,5S,7S)‐adamantan‐1‐ylamino)‐2‐oxoethyl [1,1′‐biphenyl]‐2‐carboxylate]
- effect on response to acetone, local treatment ([1]; 1 μg subcutaneous intraplantar (i.pl.)): alleviated oxaliplatin‐induced cold sensitivity; also recorded: significant antinociceptive effect
- effect on licking response to acetone drops, systemic treatment ([1]; 5 mg·kg^−1 i.p., vs vehicle): no significant effect; also recorded: did not significantly affect
- effect on withdrawal latency to dry ice, systemic treatment [2]: did not exhibit cold antinociceptive effects; also recorded: did not significantly affect
